Results as given in patent US5312919A, “Photooxidation products and derivatives thereof of merocyanine-540, their preparation and uses” (priority 1992, dated 1994).
Where two headings read alike, the source gives them in different places.

Legend:
[1] = Cytotoxicity on normal human peripheral blood mononuclear cells (trypan blue dye exclusion); format: cell-based; details: human, peripheral blood mononuclear cells, overnight, 37° C., read-out: % cell kill (mean ± S.E.M.)
Method: (§1) Preactivated MC 540 is abbreviated as pMC 540.
(§2) Merocil and Merodantoin were dissolved in cremophor EL whereas pMC 540 was prepared in 10% aqueous ethanol. […] Fresh human peripheral mononucleas cells (1×10^6 cells/ml) were treated with indicated concentration of compounds. After overnight incubation at 37° C., cell viability was determined by trypan blue dye exclusion method.

[2] = system: normal human peripheral blood mononuclear cells; assay: as above; format: cell-based; details: doses of Table 1
Method: as §1, §2

[3] = system: human Burkitt lymphoma Daudi cells; assay: Cytotoxic effects on human Burkitt lymphoma Daudi cells (MTT assay); format: cell-based
Method: Human Burkitt Lymphoma Daudi cells (1×10^6 cells/ml) were treated with different concentrations of Merodantoin. After overnight incubation at 37° C., the tumor cells kill was determined by MTT assay.
Human Burkitt Lymphoma Daudi cells (1×10^6 cells/ml) were treated with different concentrations of Merocil. After overnight incubation at 37° C., the tumor cells kill was determined by MTT assay.
(§3) Each cell type (1×10^6 cells/ml; in triplicate) was treated with indicated concentrations of Merocil or Merodantoin. After overnight (20 hr.) or 5 day incubation periods, the cell viability was determined by MTT assay and calculated as a percentage of untreated controls.

[4] = system: C-33A (carcinoma cervix, human); assay: Inhibition of cell proliferation, C-33A (MTT assay); format: cell-based; details: read-out: % inhibition of cell proliferation
Method: (§4) Preactivated MC 540 is abbreviated as pMC 540. […] 52: 831-38 (1990); and T. Mosmann, J. Immulog. Methods 65: 55-63 (1983).
as §3, with “merocil” for “Merocil”, “merodantoin.” for “Merodantoin.”, “controls. The toxicity in vehicle only (cremophor EL) controls was not detectable at highest dose tested.” for “controls.”

[5] = system: DU 145 (prostate, carcinoma, human); assay: Inhibition of cell proliferation, DU 145 (MTT assay); format: cell-based; details: read-out: % inhibition of cell proliferation
Method: as §4
as §3, with “merocil” for “Merocil”, “merodantoin.” for “Merodantoin.”, “controls. The toxicity in vehicle only (cremophor EL) controls was not detectable at highest dose tested.” for “controls.”

[6] = system: MS 751 (cervix, carcinoma, human); assay: Inhibition of cell proliferation, MS 751 (MTT assay); format: cell-based; details: read-out: % inhibition of cell proliferation
Method: as §4
as §3, with “merocil” for “Merocil”, “merodantoin.” for “Merodantoin.”, “controls. The toxicity in vehicle only (cremophor EL) controls was not detectable at highest dose tested.” for “controls.”

[7] = system: JEG-3 (choriocarcinoma, human); assay: Inhibition of cell proliferation, JEG-3 (MTT assay); format: cell-based; details: read-out: % inhibition of cell proliferation
Method: as §4
as §3, with “merocil” for “Merocil”, “merodantoin.” for “Merodantoin.”, “controls. The toxicity in vehicle only (cremophor EL) controls was not detectable at highest dose tested.” for “controls.”

[8] = system: BT-20 (breast, adenocarcinoma); assay: Inhibition of cell proliferation, BT-20 (MTT assay); format: cell-based; details: Homo sapiens, read-out: % inhibition of cell proliferation
Description: Preactivated MC 540 is abbreviated as pMC 540. […] 52: 831-38 (1990); and T. Mosmann, J. Immulog. Methods 65: 55-63 (1983). […]

[9] = system: H.S. Sultan (multiple myeloma); assay: Inhibition of cell proliferation, H.S. Sultan (MTT assay); format: cell-based; details: 24 h, read-out: % inhibition of cell proliferation
Method: as §4
(§5) Each cell type (1×10^6 cells/ml; in triplicate) was treated with indicated concentrations of merocil or merodantoin. […] The cytotoxicity in vehicle only (cremophor EL) controls was not detectable at highest dose tested.

8226 (multiple myeloma) = assay: Inhibition of cell proliferation, 8226 (MTT assay); format: cell-based; details: 24 h, read-out: % inhibition of cell proliferation
Method: as §4, §5

U266B1 (myeloma) = assay: Inhibition of cell proliferation, U266B1 (MTT assay); format: cell-based; details: 24 h, read-out: % inhibition of cell proliferation
Method: as §4, §5

[10] = system: human immunodeficiency virus (HIV-1); assay: Inactivation of cell free human immunodeficiency virus (viability of MT-4 target cells, MTT assay); format: cell-based
Method: as §4
(§6) Cell free human immunodeficiency virus (HIV-1) was either left untreated or treated with indicated doses of Merocil or Merodantoin for one hour at 37° C. and added to MT-4 target cells. After 4 hour incubation at 37° C., the cells were washed three times and further incubated in drug free fresh growth medium (complete RPMI-1640) at 37° C. for 4 days. On day four, 50% of the culture supernatant was replaced with fresh growth medium to prevent cell death due to possible nutrient depletion. The viability of the cell was determined on day 11 by MTT assay. […] The viability of the MT-4 cells was not affected by Merocil or Merodantoin under the experimental conditions described above.

MT-4 cells = assay: Effect on viability of MT-4 cells; format: cell-based; details: experimental conditions of Table 8
Method: as §6

certain tumor cells = assay: Inhibition of proliferation of tumor cells (overall conclusion); format: cell-based
Description: as §4

[11] = system: L1210 mouse leukemia cells; assay: Combined effect on L1210 mouse leukemia cells (MTT assay); details: MC = 12.5 μg/ml; MD = 25 μg/ml; MZ = 25 μg/ml; overnight
Method: The biological activities of the photooxidation products of MC 540 were determined. Preactivated MC 540 is abbreviated as pMC 540. Assays of antitumor activities of the products were carried out according to published standard methods.
Mouse leukemia L1210 cells (1 × 10^6 cells/ml) were treated wit
different combinations of the indicated compounds (isolated from
preactivated merocyanine 540). After overnight incubation the cell kill

[12] = Homo sapiens, Daudi, read-out: % Cell Kill (means ± S.D.)

Work on `CCCCN1C(=O)C(O)(OC)C(=O)N(CCCC)C1=S` [Merocil, N,N'-Dibutyl-4,5 dihydro-5-hydroxy-5-methoxy-4-oxo-2-thiouracil] yielded a cytotoxicity ([1]; 0.78 μg/ml) of 2.67 ± 0.8%, a cytotoxicity ([1]; 1.56 μg/ml) of 5 ± 0.67% and a cytotoxicity ([1]; 3.13 μg/ml) of 4 ± 0.67%. For the same compound, the cytotoxicity ([1]; 6.25 μg/ml) was 6%, the cytotoxicity ([1]; 12.5 μg/ml) was 5 ± 0.71% and the “toxicity to normal human peripheral blood mononuclear cells” value [2] was “relatively non-toxic”. The “growth inhibition of cultured Daudi lymphoma cells” value ([3]; 12.5 μg/ml) was “virtually complete growth inhibition”, the cytotoxicity at 0.78 µg/mL [3, 12] was 4.75 ± 3.2% and the cytotoxicity at 1.56 µg/mL [3, 12] was 16.5 ± 9.45%. The cytotoxicity at 3.13 µg/mL [3, 12] was 36.8 ± 16.1%, the cytotoxicity at 6.25 µg/mL [3, 12] was 87.2 ± 9.9% and the cytotoxicity at 12.5 µg/mL [3, 12] was 100%. The inhibition at 0.78 µg/mL ([4]; 20 h) was 2%, the inhibition at 1.56 µg/mL ([4]; 20 h) was 9% and the inhibition at 3.13 µg/mL ([4]; 20 h) was 35%. The inhibition at 6.25 µg/mL ([4]; 20 h) was 36%, the inhibition at 12.5 µg/mL ([4]; 20 h) was 49% and the inhibition at 0.78 µg/mL ([4]; 120 h) was 23%. For the same compound, the inhibition at 1.56 µg/mL ([4]; 120 h) was 26%, the inhibition at 3.13 µg/mL ([4]; 120 h) was 46% and the inhibition at 6.25 µg/mL ([4]; 120 h) was 89%. It also gave an inhibition at 12.5 µg/mL ([4]; 120 h) of 97%, an inhibition at 0.78 µg/mL ([5]; DU-145, 20 h) of 0% and an inhibition at 1.56 µg/mL ([5]; DU-145, 20 h) of 0%. For the same compound, the inhibition at 3.13 µg/mL ([5]; DU-145, 20 h) was 0%, the inhibition at 6.25 µg/mL ([5]; DU-145, 20 h) was 5% and the inhibition at 12.5 µg/mL ([5]; DU-145, 20 h) was 3%. It also gave an inhibition at 0.78 µg/mL ([5]; DU-145, 120 h) of 26%, an inhibition at 1.56 µg/mL ([5]; DU-145, 120 h) of 33% and an inhibition at 3.13 µg/mL ([5]; DU-145, 120 h) of 71%. The inhibition at 12.5 µg/mL ([5]; DU-145, 120 h) was 93%, the inhibition at 0.78 µg/mL ([6]; MS751, 20 h) was 1% and the inhibition at 1.56 µg/mL ([6]; MS751, 20 h) was 7%. For the same compound, the inhibition at 3.13 µg/mL ([6]; MS751, 20 h) was 12%, the inhibition at 6.25 µg/mL ([6]; MS751, 20 h) was 20% and the inhibition at 12.5 µg/mL ([6]; MS751, 20 h) was 20%. For the same compound, the inhibition at 0.78 µg/mL ([6]; MS751, 120 h) was 10%, the inhibition at 1.56 µg/mL ([6]; MS751, 120 h) was 11% and the inhibition at 3.13 µg/mL ([6]; MS751, 120 h) was 12%. The inhibition at 6.25 µg/mL ([6]; MS751, 120 h) was 29%, the inhibition at 12.5 µg/mL ([6]; MS751, 120 h) was 89% and the inhibition at 0.78 µg/mL ([7]; JEG-3, 20 h) was 0%. The inhibition at 1.56 µg/mL ([7]; JEG-3, 20 h) was 3%, the inhibition at 3.13 µg/mL ([7]; JEG-3, 20 h) was 32% and the inhibition at 6.25 µg/mL ([7]; JEG-3, 20 h) was 68%. It also gave an inhibition at 12.5 µg/mL ([7]; JEG-3, 20 h) of 86%, an inhibition at 0.78 µg/mL ([7]; JEG-3, 120 h) of 8% and an inhibition at 1.56 µg/mL ([7]; JEG-3, 120 h) of 11%. It also gave an inhibition at 3.13 µg/mL ([7]; JEG-3, 120 h) of 11%, an inhibition at 6.25 µg/mL ([7]; JEG-3, 120 h) of 51% and an inhibition at 12.5 µg/mL ([7]; JEG-3, 120 h) of 86%. It also gave an inhibition at 0.78 µg/mL ([8]; BT-20, 48 h) of 3%, an inhibition at 1.56 µg/mL ([8]; BT-20, 48 h) of 0% and an inhibition at 3.13 µg/mL ([8]; BT-20, 48 h) of 2%. It also gave an inhibition at 6.25 µg/mL ([8]; BT-20, 48 h) of 0%, an inhibition at 12.5 µg/mL ([8]; BT-20, 48 h) of 11% and an inhibition at 0.78 µg/mL ([8]; BT-20, 96 h) of 11%. For the same compound, the inhibition at 1.56 µg/mL ([8]; BT-20, 96 h) was 22%, the inhibition at 3.13 µg/mL ([8]; BT-20, 96 h) was 41% and the inhibition at 6.25 µg/mL ([8]; BT-20, 96 h) was 20%. For the same compound, the inhibition at 12.5 µg/mL ([8]; BT-20, 96 h) was 8%, the inhibition at 0.78 µg/mL [9] was 23% and the inhibition at 1.56 µg/mL [9] was 28%. It also gave an inhibition at 3.13 µg/mL [9] of 24%, an inhibition at 6.25 µg/mL [9] of 63% and an inhibition at 12.5 µg/mL [9] of 68%. For the same compound, the inhibition at 0.78 µg/mL (8226 (multiple myeloma)) was 17%, the inhibition at 1.56 µg/mL (8226 (multiple myeloma)) was 24% and the inhibition at 3.13 µg/mL (8226 (multiple myeloma)) was 26%. It also gave an inhibition at 6.25 µg/mL (8226 (multiple myeloma)) of 25%, an inhibition at 12.5 µg/mL (8226 (multiple myeloma)) of 55% and an inhibition at 0.78 µg/mL (U266B1 (myeloma)) of 3%. For the same compound, the inhibition at 1.56 µg/mL (U266B1 (myeloma)) was 6%, the inhibition at 3.13 µg/mL (U266B1 (myeloma)) was 21% and the inhibition at 6.25 µg/mL (U266B1 (myeloma)) was 8%. The inhibition at 12.5 µg/mL (U266B1 (myeloma)) was 8%, the “inactivation of cell free HIV” value ([10]; 75 μg/ml dose) was “virtually complete inactivation of the virus” and the “inactivating human immunodeficiency virus (HIV-1)” value ([10]; conclusion) was “effective”. The “viability of the MT-4 cells” value (MT-4 cells) was “not affected”, the “inhibiting the proliferation of certain tumor cells” value (certain tumor cells) was “effective” and the “% Cell Kill” value [11] was 28%.
